Five molecules from ChEMBL document CHEMBL5532706, “Passifetilactones A-E, Fatty Acid Lactones from the Fruit and Flowers of Passiflora foetida with Cytotoxic Activity” (J Nat Prod, 2024) can be followed below.

Series [1] concerns KKUM213. As to the kind of experiment: Cytotoxicity against human KKUM213 cells assessed as inhibition of cell growth incubated for 48 hrs by MTT assay. The series is classed as functional, cell-based. Particulars: KKU-213A.
The test system of another series is A549. As to the kind of experiment: Cytotoxicity against human A549 cells assessed as inhibition of cell growth incubated for 72 hrs by MTT assay. The series is classed as functional, cell-based. Particulars: A549, 72 h.
The subject of the next series is PC-3. As to the kind of experiment: Cytotoxicity against human PC-3 cells assessed as inhibition of cell growth incubated for 72 hrs by MTT assay. The format is functional, cell-based. Particulars: PC-3, 72 h.
Series [2] relates to KKUM213. As to the kind of experiment: Induction of apoptosis in human KKUM213 cells assessed as total apoptotic cells at 2 ug/ml incubated for 48 hrs by Annexin V-FITC/PI staining based flow cytometry analysis (reference value: 18.14%). Particulars: dose 2 µg/ml. The series is classed as functional, KKU-213A.
The nature of series [3]: Cytotoxicity against human MMNK-1 cells assessed as inhibition of cell growth incubated for 48 hrs by MTT assay. Particulars: for IC50 at 48 h: MMNK-1 cells. The format is toxicity, cell-based.
The test system of series [4] is KKUM213. As to the kind of experiment: Induction of apoptosis in human KKUM213 cells assessed as total apoptotic cells at 7 ug/ml incubated for 48 hrs by Annexin V-FITC/PI staining based flow cytometry analysis (reference value: 18.14%). The format is functional, KKU-213A. Particulars: dose 7 µg/ml.
Series [5] concerns KKU-M055. As to the kind of experiment: Induction of apoptosis in human KKUM055 cells assessed as total apoptotic cells at 7 ug/ml incubated for 48 hrs by Annexin V-FITC/PI staining based flow cytometry analysis (reference value: 16.44%). Particulars: dose 7 µg/ml. The series is classed as functional.
Series [6] relates to KKU-M055. As to the kind of experiment: Induction of apoptosis in human KKUM055 cells assessed as total apoptotic cells at 2 ug/ml incubated for 48 hrs by Annexin V-FITC/PI staining based flow cytometry analysis (reference value: 16.44%). The series is classed as functional. As to conditions: dose 2 µg/ml.
Series [7] in a line: Cytotoxicity against African green monkey Vero cells assessed as inhibition of cell growth incubated for 72 hrs by MTT assay. The series is classed as toxicity, cell-based. Particulars: African green monkey (Chlorocebus sabaeus).
Another series concerns HeLa. As to the kind of experiment: Cytotoxicity against human HeLa cells assessed as inhibition of cell growth incubated for 72 hrs by MTT assay. The series is classed as functional, cell-based.
Series [8] relates to KKU-M055. As to the kind of experiment: Cytotoxicity against human KKUM055 cells assessed as inhibition of cell growth incubated for 48 hrs by MTT assay. Particulars: for IC50: KKU-M055, 48 h. The format is functional, cell-based.
Series [9] relates to KKU-M055. As to the kind of experiment: Induction of apoptosis in human KKUM055 cells assessed as total apoptotic cells at 2 ug/ml incubated for 48 hrs by Annexin V-FITC/PI staining based flow cytometry analysis (reference value: 22.11%). The series is classed as functional. As to conditions: dose 2 µg/ml.
The test system of series [10] is KKUM213. As to the kind of experiment: Induction of apoptosis in human KKUM213 cells assessed as total apoptotic cells at 2 ug/ml incubated for 48 hrs by Annexin V-FITC/PI staining based flow cytometry analysis (reference value: 17.61%). The format is functional, KKU-213A. As to conditions: dose 2 µg/ml.
Series [11] has as its system KKU-M055. As to the kind of experiment: Induction of apoptosis in human KKUM055 cells assessed as total apoptotic cells at 7 ug/ml incubated for 48 hrs by Annexin V-FITC/PI staining based flow cytometry analysis (reference value: 22.11%). The series is classed as functional. Particulars: dose 7 µg/ml.
The test system of series [12] is KKUM213. As to the kind of experiment: Induction of apoptosis in human KKUM213 cells assessed as total apoptotic cells at 7 ug/ml incubated for 48 hrs by Annexin V-FITC/PI staining based flow cytometry analysis (reference value: 17.61%). The series is classed as functional, KKU-213A. As to conditions: dose 7 µg/ml.

The source made the active and inactive calls. The rule behind the calls is not given here.

On to `CCCCCCCCCCCCCCC[C@@H]1OC(=O)C=C[C@@H]1O`, for which the IC50 with KKUM213 [1] was 17 µM; in the series on A549, 3.7 µM; in the series with PC-3, 3.7 µM; with HeLa, 3.7 µM; in the series with KKU-M055 [8], 25.9 µM. Also, the Activity with KKUM213 [2] was found to be 28.97%; in the series on KKUM213 [4] it was 69.22%; in the series on KKU-M055 [5], 86%; with KKU-M055 [6], 59%. In series [3], the half-inhibitory concentration (IC50) at 48 h was determined as 57.4 µM. For the same molecule, in series [7], the half-inhibitory concentration (IC50) at 72 h was found to be 3.7 µM.

Consider `CCCCCCCCCCCCCCC[C@H]1CC=CC(=O)O1`, for which the IC50 in the series on KKUM213 [1] amounted to 18.2 µM; in the series on A549, 12.2 µM; in the series with PC-3 it was 12.2 µM; in the series on HeLa, 12.2 µM; in the series on KKU-M055 [8], 19.8 µM. Moreover, the Activity was 21.29% in the series on KKU-M055 [9], 20.64% in the series on KKUM213 [10], 43.4% with KKU-M055 [11] and 19.95% with KKUM213 [12]. For the same molecule, the 50% inhibitory concentration (IC50) at 48 h in [3] was 39.3 µM. Moreover, in series [7], the concentration for half-maximal inhibition (IC50) at 72 h came out at 12.2 µM.

As to `CCCCCCCCCCCCCCC[C@@H]1C[C@@H]2C[C@@H](CC(=O)O2)O1`, the result in the series on KKUM213 [1] and in the series on KKU-M055 [8] was inactive. The IC50 in the series on A549, with PC-3 and in the series on HeLa was 39.1 µM each time. In addition, the IC50 at 72 h in series [7] was 39.1 µM.

Turning to `CCCCCC/C=C\CCCCCCC[C@H]1CC=CC(=O)O1`, the IC50 stood at 22.5 µM in the series with KKUM213 [1]; 16.9 µM in the series with A549; 23.6 µM with PC-3; 11.2 µM in the series with HeLa; 31 µM with KKU-M055 [8]. Also, the concentration for half-maximal inhibition (IC50) at 48 h in [3] amounted to 52.9 µM. The 50% inhibitory concentration (IC50) at 72 h in [7] was found to be 21.2 µM.

For the molecule `CCCCCCCCCCCCCCC[C@@H](O)[C@@H]1C=CC(=O)O1`, the figures for the IC50 in the series with KKUM213 [1] and in the series on KKU-M055 [8] were 51.7 µM and 26.3 µM, respectively. Moreover, the Activity result in series [3] (mmnk-1, 48 h, time 48 hrs) was “Non-Toxic”.
